For 10 compounds, TGI and GI50 results are on record in PubChem BioAssay (NCI).

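Tested at 5 concentrations; 48 h exposure; 96-well plates; endpoints linearly interpolated, else capped at highest concentration. GI50 marks 50% less growth. At the TGI there is no net growth.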

Common to all, as to experiment: DTP human tumour cell line panel, 48 h
In test [1] the test system is M14 melanoma.
Test [2] deals with A498 renal.
Test [3] has as its system SK-MEL-28 melanoma.
For test [4], the system named is SK-MEL-5 melanoma.
The subject of test [5] is UACC-62 melanoma.
In test [6] the test system is NCI-H23 lung.
In test [7] the test system is A549 NSCLC.
Test [8] relates to K-562 leukemia.
For test [9], the system named is 786-0 renal.
Test [10] deals with NCI-H226 lung.

In the case of `COc1ccc(NCc2c(O)ccc3ccccc23)cc1`, the TGI is 47.6 µM in test [1]; over 100 µM in [2]; 78.3 µM in test [3]; 49.1 µM in test [4]; over 100 µM in test [5]; over 100 µM in test [6]. The TGI in [7] was over 100 µM; in [8], 38.3 µM; in test [9], 32 µM.

Regarding `CCc1ccccc1NC(=O)C1=C(C)NC(C)=C(C(=O)Nc2ccccc2CC)C1c1ccc(NC(C)=O)cc1`, the TGI in [1] was over 100 µM; in test [3], 52.9 µM; in test [4], over 100 µM; in [10], over 100 µM; in test [6], over 100 µM; in test [7], over 100 µM. Also, the values for the TGI in test [8] and in test [9] were 77.9 µM and over 100 µM, respectively.

With `COc1ccc2nc(C3=CN(C4OC(CO)C(O)C(O)C4O)C4C=CC=CC34)sc2c1` (stereo unspecified), the GI50 in [1] is 33 µM; in test [3] it was over 100 µM; in [4], 31.5 µM; in test [5] it was 22.2 µM; in [10], 21.4 µM; in [6] it was 33.9 µM. The GI50 in [7] was 28.3 µM; in test [8], 28.5 µM; in test [9] it was 15.6 µM. Also, the TGI in [1] is 93.8 µM; in [3], over 100 µM; in [4], 80.7 µM; in test [5], 67.6 µM; in test [10], 79.3 µM; in test [6], over 100 µM. The values for the TGI in test [7], in test [8] and in [9] were over 100 µM, 87.7 µM and 58.4 µM, respectively.

Regarding `O=C1/C(=C/c2ccc(C(F)(F)F)cc2)COc2ccc(O)cc21`, the GI50 in [1] is 3.24 µM; in test [2], 11.6 µM; in test [3], 1.79 µM; in [4], 1.97 µM; in [5], 2.36 µM; in test [10], 2.53 µM. The GI50 was 2.14 µM in test [6], 11.8 µM in [7] and 1.91 µM in test [9]. For the same compound, the TGI in test [1] is 10.6 µM; in test [2], 24 µM; in test [3] it was 3.8 µM; in test [4] it was 4.38 µM; in test [5], 6.84 µM; in test [10], 8.21 µM. Also, the TGI in test [6] was 5.38 µM; in [7], 24.9 µM; in test [9], 4.17 µM.

For the compound `ClC1=C(Cl)C(Cl)=C(Cl)C1=Cc1ccc(Cl)cc1Cl`, the GI50 in [1] is 0.234 µM; in test [2] it was 1.27 µM; in [3], 0.567 µM; in test [4] it was 1.04 µM; in [5], 0.192 µM; in [6] it was 0.281 µM. The GI50 was 1.7 µM in test [7], 0.341 µM in test [8] and 0.241 µM in [9]. Further, the TGI in [1] was determined as 0.635 µM; in [2], 2.6 µM; in test [3], 2.8 µM; in test [4], 2.26 µM; in test [5] it was 0.495 µM; in test [6], 1.14 µM. The total growth inhibition concentration (TGI) amounted to 4.52 µM in test [7], 2 µM in test [8] and 0.618 µM in test [9].

Turning to `CCC[CH2][Sn]1([CH2]CCC)[O]CC([CH2][Sn]([c]2ccccc2)([c]2ccccc2)[c]2ccccc2)[O]1` (stereo unspecified), the GI50 in test [1] is 15.9 µM; in [3], 5.95 µM; in [5] it was 10.6 µM; in test [10], 20.7 µM; in [7] it was 16.5 µM; in [8], 2.98 µM. The GI50 in test [9] is 11.8 µM. The TGI in test [1] was 31.4 µM; in test [3] it was 20.2 µM; in [5], 22.6 µM; in test [10], 38.8 µM; in test [7], 31.4 µM; in test [8], 13.6 µM. Besides, the TGI in test [9] is 24.5 µM.

`Cc1ccc2oc(=O)cc(C3c4ccc([nH]4)C(c4cc(=O)oc5ccc(C)cc45)c4ccc([nH]4)C(c4cc(=O)oc5ccc(C)cc45)c4ccc([nH]4)C(c4cc(=O)oc5ccc(C)cc45)c4ccc3[nH]4)c2c1` (stereo unspecified): the GI50 in [1] was 0.0253 µM; in [2], 0.0275 µM; in [3], 0.075 µM; in [4] it was 0.032 µM; in [5] it was 0.0324 µM; in test [10], 0.0865 µM. For the same compound, the GI50 in test [6] is 0.0574 µM; in [7] it was 0.063 µM; in test [9], 0.0288 µM. The TGI was 0.0766 µM in test [1]; 0.248 µM in test [2]; 2.98 µM in test [3]; 0.127 µM in test [4]; 0.8 µM in test [5]; 2.78 µM in test [10]. Also, the TGI in test [6] came out at 1.58 µM; in test [7], 1.54 µM; in test [9] it was 0.0937 µM.

Consider `O=C(O)C1=C(Cl)c2ccccc2S1(=O)=O`, for which the TGI in [1], in [3], in test [4], in test [5], in [6] and in test [7] was over 100 µM in each case. Moreover, the TGI in test [8] and in test [9] was over 100 µM in each case.

`O=C(Cc1nc2ccccc2s1)C(=O)Nc1ccc(Cl)cc1Cl`: the TGI in test [1], in test [3], in [10], in [6], in test [7] and in test [8] was over 100 µM throughout. The TGI in test [9] is over 100 µM.

As for `CN(C)CCC(=O)NCc1c2nc3ccccc3nc2n2ccccc12`, the GI50 in test [1] was 26.3 µM; in test [2], 22 µM; in [3], 83.9 µM; in [4], 16.8 µM; in test [5] it was over 100 µM; in test [6], 65.6 µM. The GI50 was over 100 µM in test [7], over 100 µM in test [8] and 19 µM in test [9]. For the same compound, the TGI was 69.5 µM in test [1]; 88.1 µM in test [2]; over 100 µM in test [3]; 52.8 µM in [4]; over 100 µM in [5]; over 100 µM in test [6]. The TGI in test [7] is over 100 µM; in [8], over 100 µM; in [9], 45.9 µM.

For orientation: TGI means the concentration giving total growth inhibition. Read a high TGI as less potent growth arrest. The term GI50 denotes the concentration that inhibits growth by half.
